Reference: patent publication US6469008B2, “(R)-hydroxynefazodone antipsychotic therapy” (Sepracor Inc., priority 1999, dated 2002)

Tests used:
Human D2 receptor = biological target: T1, Human D2 receptor (Homo sapiens, UniProt P14416); assay: Dopamine D2 receptor binding; details: [3H]spiperone, transfected A9L cell membranes
T1 construct: expressed in transfected cells; host or cells: A9L cells
Experimental: (§1) Dopamine and serotonin receptor binding assays were performed in a standard manner with the incubation of membrane preparations in an assay buffer in the presence of a known radioactively labeled specific ligand for the receptor subtypes. Nonspecific binding was determined by assessing binding in the presence of excess ligand. Specific binding was measured as the total labeled ligand bound after the nonspecific binding was subtracted. The effect of the tested agents was measured by determining the competition for the receptor binding across a concentration range. Subsequently, an IC50 was determined for the agents tested. More specific details are provided below for several of the assays performed.
(§2) Aliquots of transfected A9L cell membrane preparations corresponding to 20-40 μg protein are incubated for 60 min at 22° C. in 250 μl of 50 mM Tris-HCl buffer (pH 7.4) containing 120 mM NaCl, 5 mM KCl, 5 mM MgCl2, 1 mM EDTA, 0.3 nM [^3H]spiperone and increasing concentrations of the competing drugs. Nonspecific binding is determined in the presence of 10 μM (+)butaclamol. After incubation, the samples are filtered rapidly under vacuum through glass fiber filters (GF/B, Packard) and rinsed several times with ice-cold 50 mM Tris-HCl using a cell harvester (Packard). Bound radioactivity is measured with a scintillation counter (Topcount, Packard) using a liquid scintillation cocktail (Microscint 0, Packard). The reference compound for this assay is (+)butaclamol.

Human D4.4 receptor = biological target: T2, Human D4.4 receptor (Homo sapiens, UniProt P21917); assay: Dopamine D4 receptor binding (head prints D); details: head prints only D
T2 construct: expressed in transfected cells; host or cells: CHO cells
T2 sequence (P21917 1-419): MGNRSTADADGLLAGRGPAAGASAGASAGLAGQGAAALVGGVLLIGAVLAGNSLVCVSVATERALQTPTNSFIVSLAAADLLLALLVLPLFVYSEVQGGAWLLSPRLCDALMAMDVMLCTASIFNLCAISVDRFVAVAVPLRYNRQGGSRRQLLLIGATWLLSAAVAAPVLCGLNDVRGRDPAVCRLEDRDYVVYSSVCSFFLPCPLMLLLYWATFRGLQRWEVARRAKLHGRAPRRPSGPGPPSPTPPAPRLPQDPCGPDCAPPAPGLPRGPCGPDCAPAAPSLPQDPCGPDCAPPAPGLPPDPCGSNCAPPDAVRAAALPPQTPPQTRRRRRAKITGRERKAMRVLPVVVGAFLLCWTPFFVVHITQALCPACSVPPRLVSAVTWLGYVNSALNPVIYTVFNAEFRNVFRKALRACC
Experimental: as §1
as §2, with “transfected CHO” for “transfected A9L”, “to 100” for “to 20-40”, “is clozapine.” for “is (+)butaclamol.”

[1] = biological target: T3, norepinephrine uptake by rat hypothalamus synaptosomes (Rattus norvegicus, UniProt Q63380); assay: Norepinephrine uptake functional assay; type: biochemical; details: [3H]-norepinephrine, read-out: Monoamine Neuronal Transport NE uptake (IC50)
T3 construct: tissue Cerep; host or cells: male Wistar rat hypothalamus synaptosomes
Experimental: Norepinephrine uptake functional assay
Characterization of norepinephrine uptake is performed using synaptosomes isolated at Cerep in a 0.32 M sucrose buffer from a male Wistar rat hypothalamus. The uptake of radiolabeled norepinephrine by synaptosomes (100 μg of proteins/point) is allowed by incubating them for 20 minutes at 37° C. in presence of test compounds and [3H]-norepinephrine (0.1 μCi/point). The experiment is performed in a deep well.
Synaptosomes and [3H]-norepinephrine are prepared in a Krebs buffer pH 7.4 containing 25 mM NaHCO3, 11 mM glucose and 50 μM ascorbic acid. This incubation buffer is oxygenated during 5 minutes before incubation. Basal control is incubated for 20 minutes at 4° C. in order to avoid any uptake. Following this incubation the uptake is stopped by filtration through an “unifilter 96-wells GFB” Packard plate washed with Krebs buffer containing 25 mM NaHCO3 in order to eliminate the free [3H]-norepinephrine. The radioactivity associated to the synaptosomes retained onto the unifilter corresponding to the uptake is then measured with a microplate scintillation counter Topcount, Packard using a scintillation liquid microscint 0, Packard.
[See Perovics and Müiller, op.cit. (1995).]

[2] = system: 5-HT2 receptors versus dopamine receptors; assay: Selectivity from dopamine and serotonin receptor binding data; details: compared with nefazodone or S-hydroxynefazodone
Experimental: as §1

5-HT1A receptors = biological target: T4, 5-HT1A receptors (Homo sapiens, UniProt P08908); assay: 5-HT1A receptor binding; set-up: expressed in transfected cells; host or cells: CHO cells; details: [3H]8-OH-DPAT, transfected CHO cell membranes; read-out: Serotonin Receptor Binding 5-HT1A (IC50)
T4 sequence (P08908 1-422): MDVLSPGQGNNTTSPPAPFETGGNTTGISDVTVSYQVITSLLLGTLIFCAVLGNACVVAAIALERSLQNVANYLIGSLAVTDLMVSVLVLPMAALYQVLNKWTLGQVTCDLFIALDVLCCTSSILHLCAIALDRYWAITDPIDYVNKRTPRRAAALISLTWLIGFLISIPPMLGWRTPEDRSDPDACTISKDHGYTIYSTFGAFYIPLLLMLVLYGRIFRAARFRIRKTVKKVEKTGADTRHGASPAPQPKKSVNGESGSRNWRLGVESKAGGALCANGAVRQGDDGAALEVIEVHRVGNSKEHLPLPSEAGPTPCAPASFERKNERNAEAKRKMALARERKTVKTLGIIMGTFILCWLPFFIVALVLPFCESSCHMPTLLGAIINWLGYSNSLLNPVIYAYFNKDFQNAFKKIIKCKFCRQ
Experimental: as §1
as §2, with “CHO” for “A9L”, “7-15” for “20-40”, “10” for “120”, “MgSO4, 0.5” for “NaCl, 5 mM KCl, 5 mM MgCl2, 1”, “[^3H]8-OH-DPAT” for “[^3H]spiperone”, “8-OH-DPAT.” for “(+)butaclamol.”

[3] = AUC and Cmax increasing more than proportionally with dose and upon multiple dosing; cited from earlier work

T3 sequence (Q63380 1-617): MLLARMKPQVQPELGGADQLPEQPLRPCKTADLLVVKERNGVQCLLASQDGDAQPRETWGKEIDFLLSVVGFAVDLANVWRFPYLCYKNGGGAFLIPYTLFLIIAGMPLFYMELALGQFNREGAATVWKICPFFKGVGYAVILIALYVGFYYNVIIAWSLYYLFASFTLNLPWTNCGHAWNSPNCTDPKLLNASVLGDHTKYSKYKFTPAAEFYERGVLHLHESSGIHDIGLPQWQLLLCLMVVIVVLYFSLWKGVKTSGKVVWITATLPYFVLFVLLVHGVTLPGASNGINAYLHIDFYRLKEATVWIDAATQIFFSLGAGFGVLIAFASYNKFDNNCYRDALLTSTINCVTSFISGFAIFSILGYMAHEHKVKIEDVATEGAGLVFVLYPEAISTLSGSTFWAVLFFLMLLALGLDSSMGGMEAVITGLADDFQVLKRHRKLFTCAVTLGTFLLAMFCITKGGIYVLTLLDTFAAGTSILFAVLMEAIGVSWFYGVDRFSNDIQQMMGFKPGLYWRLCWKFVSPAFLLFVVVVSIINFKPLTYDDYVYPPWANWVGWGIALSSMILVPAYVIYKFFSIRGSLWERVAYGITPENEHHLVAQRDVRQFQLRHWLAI
T1 sequence (P14416 whole entry): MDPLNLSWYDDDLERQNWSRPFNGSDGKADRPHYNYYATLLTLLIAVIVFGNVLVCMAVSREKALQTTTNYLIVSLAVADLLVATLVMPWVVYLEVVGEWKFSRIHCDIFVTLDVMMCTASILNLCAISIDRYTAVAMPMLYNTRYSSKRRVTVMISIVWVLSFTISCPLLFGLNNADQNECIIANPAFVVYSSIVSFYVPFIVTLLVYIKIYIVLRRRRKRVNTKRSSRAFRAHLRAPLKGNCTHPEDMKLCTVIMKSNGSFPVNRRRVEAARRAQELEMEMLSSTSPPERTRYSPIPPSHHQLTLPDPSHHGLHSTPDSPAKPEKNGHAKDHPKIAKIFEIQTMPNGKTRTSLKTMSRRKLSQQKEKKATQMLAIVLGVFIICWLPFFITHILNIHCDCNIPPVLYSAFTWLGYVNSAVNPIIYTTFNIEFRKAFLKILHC

Compound	IC50 (Human D2 receptor) [nM]	IC50 (Human D4.4 receptor) [nM]	IC50 [1] [nM]	selectivity for 5-HT family of receptors, in particular 5-HT2, versus dopamine receptors (D2 and D4) [2]	IC50 (5-HT1A receptors) [nM]	kinetics for dose and time (AUC and Cmax) [3]
C[C@@H](O)c1nn(CCCN2CCN(c3cccc(Cl)c3)CC2)c(=O)n1CCOc1ccccc1 [(R)-OH, (R)-hydroxynefazodone]	1690	1910	1200	interacts more selectively	496	
C[C@H](O)c1nn(CCCN2CCN(c3cccc(Cl)c3)CC2)c(=O)n1CCOc1ccccc1 [(S)-OH, (S)-2-{3-[4-(3-Chlorophenyl)-1-piperazinyl]propyl}-4-(2-phenoxyethyl)-5-[1-(hydroxy)-ethyl]-2,4-dihydro-[1,2,4]triazol-3-one]	788	994	1500		249	
CC(O)c1nn(CCCN2CCN(c3cccc(Cl)c3)CC2)c(=O)n1CCOc1ccccc1 (racemic) [(RS)-OH, 2-[3-[4-(3-chlorophenyl)1-piperazinyl]propyl]-5-(1-hydroxyethyl)-2,4-dihydro-4-(phenoxyethyl)-3H-1,2,4-triazol-3-one, reference compound]	1420	1310	1000		409	nonlinear kinetics
